BindingDB's records for doi:10.1021/acs.jmedchem.8b00605 (Leiden University, 2018)

Biological target: T1, C-C chemokine receptor type 1 (Homo sapiens, UniProt P32246)
T1 sequence (P32246 whole entry): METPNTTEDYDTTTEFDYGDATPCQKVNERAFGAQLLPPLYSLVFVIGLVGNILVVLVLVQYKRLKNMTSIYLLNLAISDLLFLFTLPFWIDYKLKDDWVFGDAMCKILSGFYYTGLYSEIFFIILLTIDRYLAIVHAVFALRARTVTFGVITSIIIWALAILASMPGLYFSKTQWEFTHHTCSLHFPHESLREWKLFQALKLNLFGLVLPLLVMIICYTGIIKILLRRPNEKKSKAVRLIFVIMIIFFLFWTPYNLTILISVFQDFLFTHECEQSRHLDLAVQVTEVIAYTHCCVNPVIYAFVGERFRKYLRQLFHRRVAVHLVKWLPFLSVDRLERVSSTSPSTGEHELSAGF
Test: Displacement of [3H]-CCR2-RA-[R] from human TEV protease site linked CCR1 expressed in human U20S cell membranes co-expressing Gal4-VP16 transcription factor after 120 mins by scintillation spectrometry

Ki: 10 nM
SMILES: CC(=O)C1=C(O)C(=O)N(c2ccc(Br)cc2F)C1C1CCCCC1 (stereo unspecified)
